Values quoted from earlier work in patent US20260327216A1, “SUBSTITUTED OXAZOLONE COMPOUND FOR DECREASING LEVELS OF IKZF I-4 PROTEINS” (BRISTOL-MYERS SQUIBB COMPANY, priority 2023, published 2026).

Legend:
solid tumors = conditions: patients with solid tumors / advanced malignancies; cited from earlier work
[1] = test system: highly immunogenic syngeneic tumors; conditions: engineered mouse models; Geng et al., 2022; cited from earlier work
T and NK cell functions = conditions: preclinical and clinical studies; cited from earlier work

| Structure (SMILES) | clinical response in patients with solid tumors (solid tumors) | antitumor immune responses against highly immunogenic syngeneic tumors [1] | effect on T and NK cell functions (T and NK cell functions) |
| --- | --- | --- | --- |
| Cc1nc2cccc(N)c2c(=O)n1C1CCC(=O)NC1=O (centres unmarked) [avadomide] | modest responses of stable disease | – | – |
| Nc1cccc2c1CN(C1CCC(=O)NC1=O)C2=O (centres unmarked) [lenalidomide] | modest responses of stable disease | modestly increase antitumor immune responses | augment T and NK cell functions |
| Nc1cccc2c1C(=O)N(C1CCC(=O)NC1=O)C2=O (centres unmarked) [pomalidomide] | modest responses of stable disease | – | – |
